How the values were obtained:
[1] = system: phospho-p90 RSK (RSK1 Thr359/Ser363) in A375 (Braf V600E) cells; assay: Phospho-p90 RSK ELISA using A375 (Braf V600E) cells; assay type: cell-based; conditions: Homo sapiens, A-375, 2 hours compound treatment, read-out: Cellular Phospho-p90RSK IC50
A375 cells = assay: Tumor cell line proliferation assay (CellTiter Glo), A375; assay type: cell-based; conditions: Homo sapiens, A-375, 96 h, read-out: A375 (V599E) Cell Proliferation IC50
H358 (Kras, G12C) cells = assay: Tumor cell line proliferation assay (CellTiter Glo), H358; assay type: cell-based; conditions: Homo sapiens, NCI-H358, 96 hours
WM-266-4 cells = assay: Tumor cell line proliferation assay (CellTiter Glo), WM-266-4; assay type: cell-based; conditions: Homo sapiens, 96 hours, read-out: WM-266-4 (V599D) Cell Proliferation IC50
ERK2 enzyme = ERK2 enzyme (Homo sapiens (Human), UniProt P28482); assay: Z'-LYTE kinase assay, inhibition of ERK activity; assay type: biochemical; conditions: 100 μM ATP
ERK2 enzyme, sequence (P28482 whole entry): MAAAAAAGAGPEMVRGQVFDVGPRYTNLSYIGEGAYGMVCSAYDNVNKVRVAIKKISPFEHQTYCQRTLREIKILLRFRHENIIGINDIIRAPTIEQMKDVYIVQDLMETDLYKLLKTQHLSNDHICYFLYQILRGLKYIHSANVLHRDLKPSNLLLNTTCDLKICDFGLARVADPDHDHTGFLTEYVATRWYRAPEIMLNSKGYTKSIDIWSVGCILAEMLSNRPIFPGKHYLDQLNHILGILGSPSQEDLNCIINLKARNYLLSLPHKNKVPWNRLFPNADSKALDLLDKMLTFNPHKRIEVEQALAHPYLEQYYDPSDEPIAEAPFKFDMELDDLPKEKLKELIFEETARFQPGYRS
Description: The inhibition of ERK activity by the compounds disclosed herein was determined using the Z′-LYTE kinase assay kit (Life Technologies) with a Ser/Thr 3 peptide substrate (Life Technologies) according to manufacturers' instructions. […] The IC50 values for the compounds were determined with 3-fold serial dilutions in duplicate. […] The final DMSO concentration in the assay was 1%. Final reaction volume was 20 μL/well in 384-well plates. Kinase reactions were conducted or 1 hour followed by the assay development reaction (1 hour) in a 20 ul/well in a 384 well plate format.

[2] = In vitro Erk2, Z'-LYTE kinase assay

Row | SMILES | IC50 [1] [nM] | IC50 (A375 cells) [nM] | IC50 (H358 (Kras, G12C) cells) [nM] | IC50 (WM-266-4 cells) [nM] | IC50 (ERK2 enzyme; In vitro, ERK2 enzyme) [nM] | IC50 (ERK2 enzyme; [2]) [nM]
1 | Cc1cc(-c2n[nH]c3cc4c(cc23)CN([C@H](C)c2ccc(F)cc2)C(=O)N4)ccn1 [Example 5] | 250 to 1000 | > 1000 |  | 250 to 1000 |  | 
2 | COc1ncccc1CN1Cc2cc3c(-c4ccnc(C)c4)n[nH]c3cc2NC1=O [Example 9] | 250 to 1000 | > 1000 |  | 250 to 1000 |  | 
3 | Cc1cc(-c2n[nH]c3cc4[nH]c(=O)n(Cc5ccc(F)c(Cl)c5)c(=O)c4cc23)ccn1 [Example 15] | 250 to 1000 | > 1000 |  | > 1000 |  | 
4 | Cc1cc(-c2n[nH]c3cc4c(cc23)CN([C@H](C)c2ccc(Cl)cc2)C(=O)N4)ccn1 [Example 16] | ≤ 250 | 250 to 1000 |  | 250 to 1000 | 50 to 250 | 
5 | Cc1cc(-c2n[nH]c3cc4c(cc23)CN(C2(c3ccc(F)cc3)CC2)C(=O)N4)ccn1 [Example 17] | 250 to 1000 | > 1000 |  | > 1000 |  | 
6 | Cc1cc(-c2n[nH]c3cc4c(cc23)CN(CCc2ccc(F)cc2)C(=O)N4)ccn1 [Example 18] | ≤ 250 | 250 to 1000 |  | 250 to 1000 |  | 
7 | Cc1cc(-c2n[nH]c3cc4[nH]c(=O)n(Cc5ccccc5)c4cc23)ccn1 [Example 19] | 250 to 1000 | > 1000 |  | > 1000 |  | 
8 | Cc1cc(-c2n[nH]c3cc4[nH]c(=O)n(CCc5ccccc5)c4cc23)ccn1 [Example 20] | > 1000 | > 1000 |  | > 1000 |  | 
9 | Cc1cc(-c2n[nH]c3cc4[nH]c(=O)c(Cc5ccc(F)cc5)cc4cc23)ccn1 [Example 21] | 250 to 1000 | 250 to 1000 |  | 250 to 1000 |  | 
10 | Cc1cc(-c2n[nH]c3cc4[nH]c(=O)c(C(C)c5ccccc5)cc4cc23)ccn1 (centres unmarked) [Example 22] | ≤ 250 | ≤ 250 |  | ≤ 250 |  | 
11 | Cc1cc(-c2n[nH]c3cc4c(cc23)CN([C@H](C)c2ccc(C#N)cc2)C(=O)N4)ccn1 [Example 23] | ≤ 250 | 250 to 1000 |  | > 1000 |  | 
12 | Cc1cc(-c2n[nH]c3cc4[nH]c(=O)n(Cc5cccc(Cl)c5)c(=O)c4cc23)ccn1 [Example 24] |  | > 1000 |  | > 1000 |  | 
13 | O=C1Nc2cc3[nH]nc(CC4CCOCC4)c3cc2CN1[C@@H]1CN(CC(F)(F)F)C[C@H]1c1ccccc1 [Example 361] | ≤ 250 |  |  |  |  | 50 to 250
14 | COc1ccc(-c2n[nH]c3cc4[nH]c(=O)c(C5CCCN(Cc6ccccc6)C5)cc4cc23)cn1 (centres unmarked) [Example 367] | 250 to 1000 |  |  |  |  | < 50

Other lines, results leading:

Row | IC50 [1] [nM] | IC50 (A375 cells) [nM] | IC50 (H358 (Kras, G12C) cells) [nM] | IC50 (WM-266-4 cells) [nM] | IC50 (ERK2 enzyme; In vitro, ERK2 enzyme) [nM] | IC50 (ERK2 enzyme; [2]) [nM] | SMILES
15 | ≤ 250 | ≤ 250 | ≤ 250 | ≤ 250 |  |  | O=C1Nc2cc3[nH]nc(-c4ccncc4)c3cc2CN1Cc1ccccc1 [Example 1, 6-benzyl-3-(pyridin-4-yl)-1,5,6,8-tetrahydro-7H-pyrazolo[4,3-g]quinazolin-7-one]
16 | ≤ 250 | 250 to 1000 |  | 250 to 1000 |  |  | Cc1cc(-c2n[nH]c3cc4c(cc23)CN([C@H](C)c2ccccc2)C(=O)N4)ccn1 [Example 2, (R)-3-(2-methylpyridin-4-yl)-6-(1-phenylethyl)-5,6-dihydro-1H-pyrazolo[4,3-g]quinazolin-7(8H)-one]
17 | ≤ 250 | ≤ 250 |  | ≤ 250 |  |  | O=C1Nc2cc3[nH]nc(-c4ccncc4)c3cc2CN1Cc1cccc(Cl)c1 [Example 3]
18 | ≤ 250 | ≤ 250 |  | ≤ 250 |  |  | Cc1cc(-c2n[nH]c3cc4c(cc23)CN(Cc2cccc(Cl)c2)C(=O)N4)ccn1 [Example 4]
19 | ≤ 250 | 250 to 1000 |  | ≤ 250 |  |  | Cc1cc(-c2n[nH]c3cc4c(cc23)CN(Cc2cc(F)cc(F)c2)C(=O)N4)ccn1 [Example 7]
20 | ≤ 250 | 250 to 1000 |  | ≤ 250 |  |  | Cc1cc(-c2n[nH]c3cc4c(cc23)CN(Cc2ccc(F)c(Cl)c2)C(=O)N4)ccn1 [Example 8]
21 | ≤ 250 | 250 to 1000 |  | ≤ 250 |  |  | COc1ccc(CN2Cc3cc4c(-c5ccnc(C)c5)n[nH]c4cc3NC2=O)cc1 [Example 10]
22 | ≤ 250 | 250 to 1000 |  | ≤ 250 |  |  | Cc1cc(-c2n[nH]c3cc4c(cc23)CN(Cc2ccc(F)cc2F)C(=O)N4)ccn1 [Example 11]
23 | ≤ 250 | 250 to 1000 |  | ≤ 250 |  |  | Cc1cc(-c2n[nH]c3cc4c(cc23)CN(Cc2ccc(C(F)(F)F)cc2)C(=O)N4)ccn1 [Example 12]
24 | ≤ 250 | 250 to 1000 |  | 250 to 1000 |  |  | Cc1cc(-c2n[nH]c3cc4c(cc23)CN(Cc2ccc(F)c(F)c2)C(=O)N4)ccn1 [Example 13]
25 | ≤ 250 | 250 to 1000 |  | 250 to 1000 |  |  | Cc1cc(-c2n[nH]c3cc4c(cc23)CN(Cc2ccc(Cl)cc2)C(=O)N4)ccn1 [Example 14]
